The record followed here is US20240043435A1, “TYK-2 INHIBITOR” (BEIGENE, LTD., priority 2020, published 2024).

Where only a bound is given, the exact number is not on record here.

In test [1] the test system is JAK2, TYK2/p-STAT4 (Tyr693) activated by IL-12 in NK-92 cell line. Description: IL-12-JAK2, TYK2/p-STAT4 (Tyr693) inhibition IC50 cellular assay. It is filed as cell-based. Conditions: NK92, Cellular assay; read-out: pSTAT4/IL-12 IC50. In short, it runs like this:
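p-STAT4 (Tyr693) in lysates was measured by AlphaLISA SureFire Ultra after a 30 min IL-12 challenge (40 ng/ml final) at 37° C. Overnight-starved, IL-2-free NK-92 cells had been pretreated 1 h with compound at 10000 to 0.61 nM (4-fold, 8 points). IC50 values came from four-parameter logistic fitting.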

Test [2] has as its target T1, TYK2-JH2 (aa 575-869, in-house) protein (Homo sapiens, UniProt P29597).
T1 construct: TYK2-JH2 (aa 575-869, in-house) protein; made in house
Description: TYK2-JH2 biochemical assay (HTRF probe displacement). Format: binding. Conditions: Biochemical assay; read-out: TYK2-JH2 IC50. In short, it runs like this: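 HTRF probe-displacement format: compound dilutions (10 points, 5-fold, from 500 uM in DMSO at 500×) were combined with 0.2 nM TYK2-JH2 protein for 0.5 h at room temperature in HEPES pH 7.5 buffer with MgCl2, BSA, DTT and Brij-35. Percent inhibition came from the 615/665 nm fluorescence ratio, fitted to a four-parameter logistic for IC50.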

A further test has as its system pSTAT5/GM-CSF. Description: pSTAT5/GM-CSF cellular assay (JAK2 selectivity). Format: cell-based. Conditions: for Selectivity fold (TYK2/JAK2): pSTAT5/GM-CSF IC50 over pSTAT4/IL-12 IC50.

T1 sequence (P29597 575-869): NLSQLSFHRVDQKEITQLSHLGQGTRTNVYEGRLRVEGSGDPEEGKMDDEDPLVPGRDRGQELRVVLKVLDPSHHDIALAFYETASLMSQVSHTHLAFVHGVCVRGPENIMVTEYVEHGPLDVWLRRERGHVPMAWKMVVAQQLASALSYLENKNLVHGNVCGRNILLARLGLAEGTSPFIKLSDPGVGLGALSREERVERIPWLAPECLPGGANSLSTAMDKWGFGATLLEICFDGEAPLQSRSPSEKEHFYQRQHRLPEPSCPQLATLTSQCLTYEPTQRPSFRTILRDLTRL

Regarding `COC1CN(c2cc(Nc3cc(NC(C)=O)ncc3-c3ccc4c(n3)OCC(C)(C)O4)nc(S(C)(=O)=O)c2)C1` [Example Q49, N-(5-(2,2-dimethyl-2,3-dihydro-[1,4]dioxino[2,3-b]pyridin-6-yl)-4-((4-(3-methoxyazetidin-1-yl)-6-(methylsulfonyl)pyridin-2-yl)amino)pyridin-2-yl)acetamide], the IC50 is 0.827 nM in test [1], 0.029 nM in test [2] and 379 nM in the test on pSTAT5/GM-CSF. Also, in the test with pSTAT5/GM-CSF, the “Selectivity fold (TYK2/JAK2)” value was 458 fold.

In the case of `COC1CCN(c2cc(Nc3cc(NC(C)=O)ncc3-c3ccc4c(n3)OCC(C)(C)O4)nc(S(C)(=O)=O)c2)CC1` [Example Q52, N-(5-(2,2-dimethyl-2,3-dihydro-[1,4]dioxino[2,3-b]pyridin-6-yl)-4-((4-(4-methoxypiperidin-1-yl)-6-(methylsulfonyl)pyridin-2-yl)amino)pyridin-2-yl)acetamide], the IC50 stood at 1.33 nM in test [1], 0.038 nM in test [2] and 3420 nM in the test with pSTAT5/GM-CSF. In addition, the “Selectivity fold (TYK2/JAK2)” value in the test on pSTAT5/GM-CSF was 2571 fold.

As for `CO[C@H]1C[C@@H](c2cc(Nc3cc(NC(C)=O)ncc3-c3ccc4c(n3)OCC(C)(C)O4)nc(S(C)(=O)=O)c2)C1` [Example Q53, N-(5-(2,2-dimethyl-2,3-dihydro-[1,4]dioxino[2,3-b]pyridin-6-yl)-4-((4-((cis)-3-methoxycyclobutyl)-6-(methylsulfonyl)pyridin-2-yl)amino)pyridin-2-yl)acetamide], the IC50 in test [1] was 0.581 nM; in test [2] it was 0.047 nM; with pSTAT5/GM-CSF, greater than 10000 nM. In addition, in the test on pSTAT5/GM-CSF, the “Selectivity fold (TYK2/JAK2)” value is reported as greater than 17211 fold.

For the molecule `CO[C@H]1C[C@H](c2cc(Nc3cc(NC(C)=O)ncc3-c3ccc4c(n3)OCC(C)(C)O4)nc(S(C)(=O)=O)c2)C1` [Example Q54], the IC50 in test [1] worked out at 0.56 nM; in test [2], 0.037 nM; in the test on pSTAT5/GM-CSF it was 3980 nM. In addition, the “Selectivity fold (TYK2/JAK2)” value in the test with pSTAT5/GM-CSF was determined as 7116 fold.

On to `CC(=O)Nc1cc(Nc2cc(-c3cnccc3C)cc(S(C)(=O)=O)n2)c(-c2ccc3c(n2)OCC(C)(C)O3)cn1` [Example Q62, N-(5-(2,2-dimethyl-2,3-dihydro-[1,4]dioxino[2,3-b]pyridin-6-yl)-4-((4-methyl-6′-(methylsulfonyl)-[3,4′-bipyridin]-2′-yl)amino)pyridin-2-yl)acetamide], for which the figures for the IC50 (in test [1]; in test [2]; with pSTAT5/GM-CSF) were 1.79 nM, 0.047 nM and greater than 10000 nM, respectively. Further, the “Selectivity fold (TYK2/JAK2)” value in the test with pSTAT5/GM-CSF is listed as greater than 5586 fold.

Turning to `CC(=O)Nc1cc(Nc2cc(C#N)cc(S(C)(=O)=O)n2)c(-c2ccc3c(n2)OCC(C)(C)O3)cn1` [Example Q63, N-(4-((4-cyano-6-(methylsulfonyl)pyridin-2-yl)amino)-5-(2,2-dimethyl-2,3-dihydro-[1,4]dioxino[2,3-b]pyridin-6-yl)pyridin-2-yl)acetamide], the values for the IC50 (in test [1]; in test [2]; in the test on pSTAT5/GM-CSF) were 0.755 nM, 0.051 nM and 459 nM, respectively. Further, the “Selectivity fold (TYK2/JAK2)” value with pSTAT5/GM-CSF amounted to 608 fold.

As for `CC(=O)Nc1cc(Nc2nc(S(C)(=O)=O)cn(C)c2=O)c(-c2ccc3c(n2)OCC(C)(C)O3)cn1` [Example Q64, N-(5-(2,2-dimethyl-2,3-dihydro-[1,4]dioxino[2,3-b]pyridin-6-yl)-4-((4-methyl-6-(methylsulfonyl)-3-oxo-3,4-dihydropyrazin-2-yl)amino)pyridin-2-yl)acetamide], the results for the IC50 (in test [1]; in test [2]; in the test on pSTAT5/GM-CSF) were 4.61 nM, 0.034 nM and greater than 10000 nM, respectively. The “Selectivity fold (TYK2/JAK2)” value in the test with pSTAT5/GM-CSF is greater than 2169 fold.

Take `CO[C@H]1CCCN(c2cc(Nc3cc(NC(C)=O)ncc3-c3ccc4c(n3)OCC(C)(C)O4)nc(S(C)(=O)=O)c2)C1` [Example Q65, (S)-N-(5-(2,2-dimethyl-2,3-dihydro-[1,4]dioxino[2,3-b]pyridin-6-yl)-4-((4-(3-methoxypiperidin-1-yl)-6-(methylsulfonyl)pyridin-2-yl)amino)pyridin-2-yl)acetamide]: the values for the IC50 (in test [1]; in test [2]; in the test with pSTAT5/GM-CSF) were 0.685 nM, 0.029 nM and 1640 nM, respectively. The “Selectivity fold (TYK2/JAK2)” value in the test on pSTAT5/GM-CSF is 2397 fold.

For the molecule `CO[C@@H]1CCCN(c2cc(Nc3cc(NC(C)=O)ncc3-c3ccc4c(n3)OCC(C)(C)O4)nc(S(C)(=O)=O)c2)C1` [Example Q66, (R)-N-(5-(2,2-dimethyl-2,3-dihydro-[1,4]dioxino[2,3-b]pyridin-6-yl)-4-((4-(3-methoxypiperidin-1-yl)-6-(methylsulfonyl)pyridin-2-yl)amino)pyridin-2-yl)acetamide], the IC50 in test [1] amounted to 0.792 nM; in test [2] it was 0.029 nM; in the test with pSTAT5/GM-CSF, 3050 nM. Further, the “Selectivity fold (TYK2/JAK2)” value in the test with pSTAT5/GM-CSF came to 3845 fold.

Consider `COCC1CCN(c2cc(Nc3cc(NC(C)=O)ncc3-c3ccc4c(n3)OCC(C)(C)O4)nc(S(C)(=O)=O)c2)C1` (centres unmarked) [Example Q73, N-(5-(2,2-dimethyl-2,3-dihydro-[1,4]dioxino[2,3-b]pyridin-6-yl)-4-((4-(3-(methoxymethyl)pyrrolidin-1-yl)-6-(methylsulfonyl)pyridin-2-yl)amino)pyridin-2-yl)acetamide], for which the IC50 is 2.84 nM in test [1], 0.025 nM in test [2] and 2350 nM with pSTAT5/GM-CSF. Also, the “Selectivity fold (TYK2/JAK2)” value in the test with pSTAT5/GM-CSF is recorded as 828 fold.

For the molecule `CC(=O)Nc1cc(Nc2cc(C3CCCOC3)cc(S(C)(=O)=O)n2)c(-c2ccc3c(n2)OCC(C)(C)O3)cn1` (centres unmarked) [Example Q75, N-(5-(2,2-dimethyl-2,3-dihydro-[1,4]dioxino[2,3-b]pyridin-6-yl)-4-((6-(methylsulfonyl)-4-(tetrahydro-2H-pyran-3-yl)pyridin-2-yl)amino)pyridin-2-yl)acetamide], the IC50 in test [1] worked out at 0.637 nM; in test [2], 0.024 nM; in the test with pSTAT5/GM-CSF, 473 nM. Also, the “Selectivity fold (TYK2/JAK2)” value in the test with pSTAT5/GM-CSF was 742 fold.

For the molecule `CC(=O)Nc1cc(Nc2cc(OCC3(C)COC3)cc(S(C)(=O)=O)n2)c(-c2ccc3c(n2)OCC(C)(C)O3)cn1` [Example Q98, N-(5-(2,2-dimethyl-2,3-dihydro-[1,4]dioxino[2,3-b]pyridin-6-yl)-4-((4-((3-methyloxetan-3-yl)methoxy)-6-(methylsulfonyl)pyridin-2-yl)amino)pyridin-2-yl)acetamide], the IC50 was 1.15 nM in test [1], 0.026 nM in test [2] and greater than 10000 nM with pSTAT5/GM-CSF. Besides, the “Selectivity fold (TYK2/JAK2)” value with pSTAT5/GM-CSF is on record as greater than 8695 fold.

For the molecule `COc1ccncc1-c1cc(Nc2cc(NC(C)=O)ncc2-c2ccc3c(n2)OCC(C)(C)O3)nc(S(C)(=O)=O)c1` [Example Q101, N-(5-(2,2-dimethyl-2,3-dihydro-[1,4]dioxino[2,3-b]pyridin-6-yl)-4-((4-methoxy-6′-(methylsulfonyl)-[3,4′-bipyridin]-2′-yl)amino)pyridin-2-yl)acetamide], the IC50 in test [1] was 0.904 nM; in test [2], 0.03 nM; with pSTAT5/GM-CSF, 373 nM. Moreover, the “Selectivity fold (TYK2/JAK2)” value with pSTAT5/GM-CSF amounted to 412 fold.

Take `CC(=O)Nc1cc(Nc2cc(-c3cnccc3C#N)cc(S(C)(=O)=O)n2)c(-c2ccc3c(n2)OCC(C)(C)O3)cn1` [Example Q115, N-(4-((4-cyano-6′-(methyslulfonyl)-[3,4′-bipyridin]-2′-yl)amino)-5-(2,2-dimethyl-2,3-dihydro-[1,4]dioxino[2,3-b]pyridin-6-yl)pyridin-2-yl)acetamide]: the IC50 in test [1] is 0.302 nM; in test [2], 0.034 nM; in the test on pSTAT5/GM-CSF, greater than 10000 nM. The “Selectivity fold (TYK2/JAK2)” value in the test with pSTAT5/GM-CSF is given as greater than 33112 fold.
